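Growth conditions: 96-well plates. Treatment: test compound, 48 hours, 5 concentrations. Analysis: linear interpolation between bracketing concentrations; unreached endpoints set to highest concentration. TGI denotes the concentration required for complete inhibition of growth.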
Assays:
Assay in all cases: NCI-60 cell line screen, 48 h
HCC-2998 colon = system: HCC-2998 colon
SF-268 CNS = system: SF-268 CNS
OVCAR-3 ovarian = system: OVCAR-3 ovarian
SK-MEL-5 melanoma = system: SK-MEL-5 melanoma
EKVX NSCLC = system: EKVX NSCLC
MCF7 breast = system: MCF7 breast
ACHN renal = system: ACHN renal
SR leukemia = system: SR leukemia
SK-OV-3 ovarian = system: SK-OV-3 ovarian
RPMI-8226 leukemia = system: RPMI-8226 leukemia

## O=[N+]([O-])c1c(Br)cc(Br)c2c1Nc1c(ccc(Cl)c1Cl)S2
HCC-2998 colon
  TGI: 28.8 µM
SF-268 CNS
  TGI: 38.6 µM
OVCAR-3 ovarian
  TGI: 9.5 µM
SK-MEL-5 melanoma
  TGI: 30.2 µM
EKVX NSCLC
  TGI: 30.9 µM
MCF7 breast
  TGI: 17.9 µM
ACHN renal
  TGI: 30.7 µM
SR leukemia
  TGI: > 26.8 µM
SK-OV-3 ovarian
  TGI: 43 µM
RPMI-8226 leukemia
  TGI: > 100 µM

## COc1cc(/C=C/C(=O)c2c(=O)o[nH][n+]2-c2ccccc2)ccc1[O-]
HCC-2998 colon
  TGI: 6.28 µM
SF-268 CNS
  TGI: 15.2 µM
OVCAR-3 ovarian
  TGI: 4.82 µM
SK-MEL-5 melanoma
  TGI: 15 µM
EKVX NSCLC
  TGI: 15.9 µM
MCF7 breast
  TGI: 13.8 µM
ACHN renal
  TGI: 6.17 µM
SR leukemia
  TGI: 4.54 µM
SK-OV-3 ovarian
  TGI: 16.1 µM
RPMI-8226 leukemia
  TGI: 5.55 µM

## Nc1ncnc2c1ncn2C1CCC(COS(N)(=O)=O)C1 (stereo not given)
HCC-2998 colon
  TGI: > 100 µM
SF-268 CNS
  TGI: > 100 µM
OVCAR-3 ovarian
  TGI: > 100 µM
SK-MEL-5 melanoma
  TGI: > 100 µM
EKVX NSCLC
  TGI: > 100 µM
MCF7 breast
  TGI: > 100 µM
ACHN renal
  TGI: > 100 µM
SR leukemia
  TGI: > 100 µM
SK-OV-3 ovarian
  TGI: > 100 µM
RPMI-8226 leukemia
  TGI: > 100 µM

## N#Cc1nc(CCCCCN2C(=O)c3ccccc3C2=O)oc1N
HCC-2998 colon
  TGI: > 100 µM
SF-268 CNS
  TGI: > 100 µM
OVCAR-3 ovarian
  TGI: > 100 µM
SK-MEL-5 melanoma
  TGI: > 100 µM
EKVX NSCLC
  TGI: > 100 µM
MCF7 breast
  TGI: > 100 µM
ACHN renal
  TGI: > 100 µM
SR leukemia
  TGI: > 100 µM
SK-OV-3 ovarian
  TGI: > 100 µM
RPMI-8226 leukemia
  TGI: > 100 µM

## O=C(CCN1CCCC1)Nc1ccc2sc3ccccc3c(=O)c2n1
HCC-2998 colon
  TGI: 17 µM
SF-268 CNS
  TGI: > 31.6 µM
OVCAR-3 ovarian
  TGI: 20.5 µM
SK-MEL-5 melanoma
  TGI: 16.4 µM
EKVX NSCLC
  TGI: 20.1 µM
MCF7 breast
  TGI: 21.3 µM
ACHN renal
  TGI: 16.3 µM
SR leukemia
  TGI: 23.7 µM
SK-OV-3 ovarian
  TGI: 14.3 µM
RPMI-8226 leukemia
  TGI: 21.9 µM

## O=C1C=CC(=O)C(CNc2ccc(C(=O)OC34CC5CC(CC(C5)C3)C4)cc2)=C1
HCC-2998 colon
  TGI: 32.4 µM
SF-268 CNS
  TGI: 17.3 µM
OVCAR-3 ovarian
  TGI: 14.4 µM
SK-MEL-5 melanoma
  TGI: 16.7 µM
EKVX NSCLC
  TGI: 25.3 µM
MCF7 breast
  TGI: 27.5 µM
ACHN renal
  TGI: 19.1 µM
SR leukemia
  TGI: > 29.3 µM
SK-OV-3 ovarian
  TGI: > 57.4 µM
RPMI-8226 leukemia
  TGI: 7.01 µM

## Cc1ccc(C2=NOC(=O)[C@@H]3CCCC[C@@H]23)cc1
HCC-2998 colon
  TGI: > 100 µM
SF-268 CNS
  TGI: > 100 µM
OVCAR-3 ovarian
  TGI: > 100 µM
SK-MEL-5 melanoma
  TGI: > 100 µM
EKVX NSCLC
  TGI: > 100 µM
MCF7 breast
  TGI: > 100 µM
ACHN renal
  TGI: > 100 µM
SR leukemia
  TGI: > 100 µM
SK-OV-3 ovarian
  TGI: > 100 µM
RPMI-8226 leukemia
  TGI: > 100 µM

## O=C1NC(=O)/C(=C/c2ccc(S(=O)(=O)N/N=C/c3ccc(Cl)cc3)cc2)N1
HCC-2998 colon
  TGI: > 100 µM
SF-268 CNS
  TGI: > 100 µM
OVCAR-3 ovarian
  TGI: > 100 µM
SK-MEL-5 melanoma
  TGI: > 100 µM
EKVX NSCLC
  TGI: > 100 µM
MCF7 breast
  TGI: > 100 µM
ACHN renal
  TGI: > 100 µM
SR leukemia
  TGI: > 100 µM
SK-OV-3 ovarian
  TGI: > 100 µM
RPMI-8226 leukemia
  TGI: > 100 µM
